From ChEMBL document CHEMBL5576063, “Design, concise synthesis and evaluation of novel amide-based combretastatin A-4 analogues as potent tubulin inhibitors” (Bioorg Med Chem Lett, 2024)
Values belong to the molecule of their own block, whether it stands above or below them. Activity calls are given as the source filed them. The calls are words filed in the database; no cut-off is given here.

Experiments:
A549 [1] = assay: Antiproliferative activity against human A549 cells assessed as inhibition of cell growth by MTT assay; assay type: functional, cell-based
Tubulin (Homo sapiens) [2] = molecular target: T1, Tubulin (Homo sapiens) (UniProt P68371+Q9H4B7+P0DPH7+P68366+Q13509+Q71U36+P04350+Q3ZCM7+P07437+P68363+Q9BQE3+Q6PEY2+Q13885+Q9BVA1+Q9BUF5); assay: Inhibition of tubulin polymerization (unknown origin) at 10 uM measured upto 30 mins by spectrophotometry analysis; assay type: protein-complex assay
[3] = Antiproliferative activity against HEK293 cells assessed as inhibition of cell growth by MTT assay; assay type: toxicity, cell-based; conditions: human
Tubulin (Homo sapiens) [4] = molecular target: T1, Tubulin (Homo sapiens); assay: Inhibition of tubulin polymerization (unknown origin) at 10 uM measured upto 30 mins by spectrophotometry based analysis relative to control; assay type: protein-complex assay
HeLa = assay: Antiproliferative activity against human HeLa cells assessed as inhibition of cell growth by MTT assay; assay type: functional, cell-based
HCT-116 = assay: Antiproliferative activity against human HCT-116 cells assessed as inhibition of cell growth by MTT assay; assay type: functional, cell-based
HT-29 = assay: Antiproliferative activity against human HT-29 cells assessed as inhibition of cell growth by MTT assay; assay type: functional, cell-based
A549 [5] = assay: Induction of cell cycle arrest in human A549 cells assessed as accumulation of cells at G2/M phase at 4.8 uM measured after 24 hrs by PI staining based flow cytometry analysis (reference value: 21.00%); assay type: functional
A549 [6] = assay: Induction of cell cycle arrest in human A549 cells assessed as accumulation of cells at G0/G1 phase at 2.4 uM measured after 24 hrs by PI staining based flow cytometry analysis (reference value: 55.88%); assay type: functional
A549 [7] = assay: Induction of apoptosis in human A549 cells assessed measured after 24 hrs by annexin-V/PI staining based flow cytometry analysis; assay type: functional, cell-based; conditions: dose 1.2-4.8 µM
A549 [8] = assay: Induction of apoptosis in human A549 cells assessed as early apoptotic cells at 2.4 uM measured after 24 hrs by annexin-V/PI staining based flow cytometry analysis (reference value: 1.87%); assay type: functional
A549 [9] = assay: Induction of apoptosis in human A549 cells assessed as late apoptotic cells at 4.8 uM measured after 24 hrs by annexin-V/PI staining based flow cytometry analysis (reference value: 0.25%); assay type: functional
A549 [10] = assay: Induction of cell cycle arrest in human A549 cells assessed as accumulation of cells at S phase at 1.2 uM measured after 24 hrs by PI staining based flow cytometry analysis (reference value: 23.17%); assay type: functional
Tubulin = assay: Inhibition of tubulin polymerization (unknown origin) measured upto 30 mins by spectrophotometry based analysis; assay type: protein-complex assay, Homo sapiens
A549 [11] = assay: Induction of cell cycle arrest in human A549 cells assessed as accumulation of cells at G0/G1 phase at 4.8 uM measured after 24 hrs by PI staining based flow cytometry analysis (reference value: 55.88%); assay type: functional
A549 [12] = assay: Induction of cell cycle arrest in human A549 cells assessed as accumulation of cells at G2/M phase at 2.4 uM measured after 24 hrs by PI staining based flow cytometry analysis (reference value: 21.00%); assay type: functional
A549 [13] = assay: Induction of apoptosis in human A549 cells assessed as viable cells at 2.4 uM measured after 24 hrs by annexin-V/PI staining based flow cytometry analysis (reference value: 97.4%); assay type: functional; conditions: read-out: Activity
A549 [14] = assay: Induction of apoptosis in human A549 cells assessed as necrotic cells at 4.8 uM measured after 24 hrs by annexin-V/PI staining based flow cytometry analysis (reference value: 0.48%); assay type: functional
A549 [15] = assay: Induction of cell cycle arrest in human A549 cells assessed as accumulation of cells at G0/G1 phase at 1.2 uM measured after 24 hrs by PI staining based flow cytometry analysis (reference value: 55.88%); assay type: functional
A549 [16] = assay: Induction of apoptosis in human A549 cells assessed as late apoptotic cells at 2.4 uM measured after 24 hrs by annexin-V/PI staining based flow cytometry analysis (reference value: 0.25%); assay type: functional
A549 [17] = assay: Induction of apoptosis in human A549 cells assessed as viable cells at 4.8 uM measured after 24 hrs by annexin-V/PI staining based flow cytometry analysis (reference value: 97.4%); assay type: functional; conditions: read-out: Activity
Tubulin (Homo sapiens) [18] = molecular target: T1, Tubulin (Homo sapiens); assay: Inhibition of tubulin polymerization (unknown origin) at 6 uM measured upto 30 mins by spectrophotometry analysis; assay type: protein-complex assay
A549 [19] = assay: Induction of cell cycle arrest in human A549 cells assessed as accumulation of cells at S phase at 4.8 uM measured after 24 hrs by PI staining based flow cytometry analysis (reference value: 23.17%); assay type: functional
A549 [20] = assay: Induction of cell cycle arrest in human A549 cells assessed as accumulation of cells at S phase at 2.4 uM measured after 24 hrs by PI staining based flow cytometry analysis (reference value: 23.17%); assay type: functional
A549 [21] = assay: Induction of apoptosis in human A549 cells assessed as necrotic cells at 2.4 uM measured after 24 hrs by annexin-V/PI staining based flow cytometry analysis (reference value: 0.48%); assay type: functional
A549 [22] = assay: Induction of apoptosis in human A549 cells assessed as necrotic cells at 1.2 uM measured after 24 hrs by annexin-V/PI staining based flow cytometry analysis (reference value: 0.48%); assay type: functional
A549 [23] = assay: Induction of apoptosis in human A549 cells assessed as late apoptotic cells at 1.2 uM measured after 24 hrs by annexin-V/PI staining based flow cytometry analysis (reference value: 0.25%); assay type: functional
A549 [24] = assay: Induction of apoptosis in human A549 cells assessed as early apoptotic cells at 1.2 uM measured after 24 hrs by annexin-V/PI staining based flow cytometry analysis (reference value: 1.87%); assay type: functional
A549 [25] = assay: Induction of apoptosis in human A549 cells assessed as early apoptotic cells at 4.8 uM measured after 24 hrs by annexin-V/PI staining based flow cytometry analysis (reference value: 1.87%); assay type: functional
A549 [26] = assay: Induction of apoptosis in human A549 cells assessed as viable cells at 1.2 uM measured after 24 hrs by annexin-V/PI staining based flow cytometry analysis (reference value: 97.4%); assay type: functional; conditions: read-out: Activity
A549 [27] = assay: Induction of cell cycle arrest in human A549 cells assessed as accumulation of cells at G2/M phase at 1.2 uM measured after 24 hrs by PI staining based flow cytometry analysis (reference value: 21.00%); assay type: functional
A549 [28] = assay: Induction of cell cycle arrest in human A549 cells assessed as accumulation of cells at G2/M phase measured after 24 hrs by PI staining based flow cytometry analysis; assay type: functional; conditions: dose 1.2-4.8 µM

IC50 (A549 [1]): 3.01 µM
Structure (SMILES): COc1ccc(NC(=O)/C(=C/c2ccc(OC)c(OC(C)=O)c2)c2cc(OC)c(OC)c(OC)c2)cc1

IC50 (A549 [1]): 3.91 µM
Structure (SMILES): COc1ccc(/C=C(/C(=O)Nc2ccccc2)c2cc(OC)c(OC)c(OC)c2)cc1OC(C)=O

inhibition (Tubulin (Homo sapiens) [2]): inactive
Structure (SMILES): CC(=O)O[C@H]1C(=O)[C@@]2(C)[C@H]([C@H](OC(=O)c3ccccc3)[C@]3(O)C[C@H](OC(=O)[C@H](O)[C@@H](NC(=O)c4ccccc4)c4ccccc4)C(C)=C1C3(C)C)[C@]1(OC(C)=O)CO[C@@H]1C[C@@H]2O

inhibition (Tubulin (Homo sapiens) [4]): 3% | IC50 (HeLa): 17.3 µM | IC50 (HCT-116): 20.5 µM | IC50 (A549 [1]): 2.64 µM | IC50 (HT-29): 30.2 µM
Structure (SMILES): COc1ccc(/C=C(/C(=O)Nc2ccc(Cl)cc2)c2cc(OC)c(OC)c(OC)c2)cc1OC(C)=O
IC50 [3]: > 100 µM

Structure (SMILES): COc1ccc(/C=C\c2cc(OC)c(OC)c(OC)c2)cc1O [COMBRETASTATIN A4]
IC50 [3]: 48.1 µM | IC50 (HeLa): 0.08 µM | IC50 (HCT-116): 4.77 µM | IC50 (A549 [1]): 0.11 µM | IC50 (HT-29): 1.65 µM

IC50 (A549 [1]): > 50 µM
Structure (SMILES): COc1ccc(NC(=O)/C(=C/c2ccc(OC)c(O)c2)c2cc(OC)c(OC)c(OC)c2)cc1

IC50 (A549 [1]): 45.7 µM
Structure (SMILES): CCN1CCN(c2ccc(NC(=O)/C(=C/c3ccc(OC)c(O)c3)c3cc(OC)c(OC)c(OC)c3)cc2)CC1

inhibition (Tubulin (Homo sapiens) [4]): 3% | IC50 (HeLa): 23.4 µM | IC50 (HCT-116): 28.6 µM | IC50 (A549 [1]): 1.08 µM | IC50 (HT-29): 18.1 µM
Structure (SMILES): COc1ccc(/C=C(/C(=O)Nc2ccc(C(C)C)cc2)c2cc(OC)c(OC)c(OC)c2)cc1OC(C)=O
IC50 [3]: > 100 µM

IC50 (A549 [1]): > 50 µM
Structure (SMILES): COc1ccc(/C=C(/C(=O)NC2CCCC2)c2cc(OC)c(OC)c(OC)c2)cc1OC(C)=O

IC50 (A549 [1]): 4.85 µM
Structure (SMILES): CCN1CCN(c2ccc(NC(=O)/C(=C/c3ccc(OC)c(OC(C)=O)c3)c3cc(OC)c(OC)c(OC)c3)cc2)CC1

IC50 (A549 [1]): > 50 µM
Structure (SMILES): COc1ccc(/C=C(/C(=O)NC2CC2)c2cc(OC)c(OC)c(OC)c2)cc1OC(C)=O

IC50 (A549 [1]): > 50 µM
Structure (SMILES): CCc1ccc(NC(=O)/C(=C/c2ccc(OC)c(O)c2)c2cc(OC)c(OC)c(OC)c2)cc1

IC50 (A549 [1]): 3.99 µM
Structure (SMILES): COc1ccc(/C=C(/C(=O)Nc2ccc(C)cc2)c2cc(OC)c(OC)c(OC)c2)cc1OC(C)=O

IC50 (A549 [1]): > 50 µM
Structure (SMILES): COc1ccc(/C=C(/C(=O)Nc2ccc(N3CCN(C)CC3)cc2)c2cc(OC)c(OC)c(OC)c2)cc1OC(C)=O

IC50 (A549 [1]): > 50 µM
Structure (SMILES): COc1ccc(/C=C(/C(=O)NC2CC2)c2cc(OC)c(OC)c(OC)c2)cc1O

IC50 (A549 [1]): > 50 µM
Structure (SMILES): COc1ccc(/C=C(/C(=O)NCc2ccccc2)c2cc(OC)c(OC)c(OC)c2)cc1O

IC50 (A549 [1]): 24.5 µM
Structure (SMILES): COc1ccc(/C=C(/C(=O)Nc2ccc(C)cc2)c2cc(OC)c(OC)c(OC)c2)cc1O

IC50 (A549 [1]): > 50 µM
Structure (SMILES): COc1ccc(/C=C(/C(=O)Nc2ccc(Cl)cc2)c2cc(OC)c(OC)c(OC)c2)cc1O

IC50 (A549 [1]): 43.4 µM
Structure (SMILES): COc1ccc(/C=C(/C(=O)Nc2ccc(C(C)C)cc2)c2cc(OC)c(OC)c(OC)c2)cc1O

IC50 (Tubulin): 6.9 µM | inhibition (Tubulin (Homo sapiens) [4]): 62% | IC50 (HeLa): 10.3 µM | inhibition (Tubulin (Homo sapiens) [18]): Active | IC50 (HCT-116): 6.28 µM | IC50 (A549 [1]): 2.42 µM | IC50 (HT-29): 5.33 µM
Structure (SMILES): COc1ccc(/C=C(/C(=O)Nc2ccccc2)c2cc(OC)c(OC)c(OC)c2)cc1O
Activity (A549 [5]): 32.36% | IC50 [3]: > 100 µM | Activity (A549 [6]): 40.69% | Activity (A549 [7]): Dose-Dependent Effect | Activity (A549 [8]): 1.87% | Activity (A549 [9]): 5.15% | Activity (A549 [10]): 22.72% | Activity (A549 [11]): 53.73% | Activity (A549 [12]): 46.63% | viability at 2.4 µM (A549 [13]): 93.1% | Activity (A549 [14]): 2.96% | Activity (A549 [15]): 53.47% | Activity (A549 [16]): 3.33% | viability at 4.8 µM (A549 [17]): 86.9% | Activity (A549 [19]): 13.9% | Activity (A549 [20]): 32.71% | Activity (A549 [21]): 1.65% | Activity (A549 [22]): 0.27% | Activity (A549 [23]): 1.35% | Activity (A549 [24]): 1.98% | Activity (A549 [25]): 4.97% | viability at 1.2 µM (A549 [26]): 96.4% | Activity (A549 [27]): 28.81% | Activity (A549 [28]): Dose-Dependent Effect

IC50 (A549 [1]): > 50 µM
Structure (SMILES): COc1ccc(/C=C(/C(=O)NC2CCCC2)c2cc(OC)c(OC)c(OC)c2)cc1O

inhibition (Tubulin (Homo sapiens) [4]): 34% | IC50 (HeLa): 9.79 µM | IC50 (HCT-116): 5.49 µM | IC50 (A549 [1]): 0.73 µM | IC50 (HT-29): 4.71 µM
Structure (SMILES): COc1ccc(/C=C(/C(=O)Nc2cc(OC)c(OC)c(OC)c2)c2cc(OC)c(OC)c(OC)c2)cc1OC(C)=O
IC50 [3]: > 100 µM

IC50 (A549 [1]): 3.53 µM
Structure (SMILES): CCc1ccc(NC(=O)/C(=C/c2ccc(OC)c(OC(C)=O)c2)c2cc(OC)c(OC)c(OC)c2)cc1

IC50 (A549 [1]): > 50 µM
Structure (SMILES): COc1ccc(/C=C(/C(=O)Nc2cc(OC)c(OC)c(OC)c2)c2cc(OC)c(OC)c(OC)c2)cc1O

IC50 (A549 [1]): > 50 µM
Structure (SMILES): COc1ccc(/C=C(/C(=O)Nc2ccc(N3CCN(C)CC3)cc2)c2cc(OC)c(OC)c(OC)c2)cc1O

IC50 (A549 [1]): 33.8 µM
Structure (SMILES): COc1ccc(/C=C(/C(=O)NCc2ccccc2)c2cc(OC)c(OC)c(OC)c2)cc1OC(C)=O
